In the NIST ThermoML archive (doi:10.1016/j.jct.2004.09.007):

Columns and labels:
[1] = molar heat capacity at constant pressure; settings: 101.3 kPa, Liquid, Large sample (1 g) DSC
[2] = 298.15 K; 101.33 kPa; Liquid; Pycnometric method
[3] = molar heat capacity at constant pressure; xn = mol fraction of the nth substance listed; settings: 101.3 kPa, Liquid, Large sample (1 g) DSC, x2 = 0

CC(O)CCO (centres undefined) [1,3-butanediol]
[1]
Settings | molar heat capacity at constant pressure [J/K/mol]
285.15 K | 211.74
285.65 K | 212.17
288.15 K | 213.57
290.65 K | 215.06
293.15 K | 216.58
295.65 K | 218.04
298.15 K | 219.62
300.65 K | 221.14
303.15 K | 222.8
305.65 K | 224.37
308.15 K | 226.07
310.65 K | 227.65
313.15 K | 229.24
315.65 K | 230.82
318.15 K | 232.6
320.65 K | 234.14
323.15 K | 235.83
325.65 K | 237.52
328.15 K | 239.08
330.65 K | 240.59
333.15 K | 242.28
335.65 K | 243.86
338.15 K | 245.11
340.65 K | 247.19
343.15 K | 248.62
345.65 K | 250.13
348.15 K | 251.66
350.65 K | 253.24
353.15 K | 254.86

Settings | mass density [kg/m3]
[2] | 1000.42

CCCCO [butan-1-ol]
[1]
Settings | molar heat capacity at constant pressure [J/K/mol]
285.15 K | 168.64
285.65 K | 169.01
288.15 K | 170.39
290.65 K | 172
293.15 K | 173.56
295.65 K | 175.19
298.15 K | 176.82
300.65 K | 178.53
303.15 K | 180.42
305.65 K | 182.27
308.15 K | 184.15
310.65 K | 186.08
313.15 K | 187.99
315.65 K | 189.99
318.15 K | 192.06
320.65 K | 194.2
323.15 K | 196.35
325.65 K | 198.45
328.15 K | 200.45
330.65 K | 202.76
333.15 K | 204.94
335.65 K | 207.1
338.15 K | 209.17
340.65 K | 211.74
343.15 K | 213.82
345.65 K | 216.35
348.15 K | 218.32
350.65 K | 220.5
353.15 K | 222.81

Settings | mass density [kg/m3]
[2] | 805.82

CCCCO [butan-1-ol] + CC(O)CCO
[3]
Settings | molar heat capacity at constant pressure [J/K/mol]
285.15 K | 168.64
285.65 K | 169.01
288.15 K | 170.39
290.65 K | 172
293.15 K | 173.56
295.65 K | 175.19
298.15 K | 176.82
300.65 K | 178.53
303.15 K | 180.42
305.65 K | 182.27
308.15 K | 184.15
310.65 K | 186.08
313.15 K | 187.99
315.65 K | 189.99
318.15 K | 192.06
320.65 K | 194.2
323.15 K | 196.35
325.65 K | 198.45
328.15 K | 200.45
330.65 K | 202.76
333.15 K | 204.94
335.65 K | 207.1
338.15 K | 209.17
340.65 K | 211.74
343.15 K | 213.82
345.65 K | 216.35
348.15 K | 218.32
350.65 K | 220.5
353.15 K | 222.81
